Earlier results on one molecule are cited in patent US11179338B1, “Powder for oral suspension containing tadalafil” (AUSON PHARMACEUTICALS INC., priority 2021, dated 2021).

For the molecule `CN1CC(=O)N2[C@H](c3ccc4c(c3)OCO4)c3[nH]c4ccccc4c3C[C@@H]2C1=O` [Tadalafil, pyrazino [1′,2′:1,6]pyrido[3,4-b]indole-1,4-dione, 6-(1,3-benzodioxol-5-yl) 2,3,6,7,12,12a-hexahydro-2-methyl-, (6R,12aR)-], the solubility in water result is given as “insoluble”.
